Tests used:
[1] = target: T1, PIP4K2A (Homo sapiens, UniProt P48426); assay: ADP-glo kinase assay PIP4K 2A (Table 3); format: biochemical; design: made in house; host or cells: E. coli; details: compounds listed under IC50 bins
T1 sequence (P48426 1-406): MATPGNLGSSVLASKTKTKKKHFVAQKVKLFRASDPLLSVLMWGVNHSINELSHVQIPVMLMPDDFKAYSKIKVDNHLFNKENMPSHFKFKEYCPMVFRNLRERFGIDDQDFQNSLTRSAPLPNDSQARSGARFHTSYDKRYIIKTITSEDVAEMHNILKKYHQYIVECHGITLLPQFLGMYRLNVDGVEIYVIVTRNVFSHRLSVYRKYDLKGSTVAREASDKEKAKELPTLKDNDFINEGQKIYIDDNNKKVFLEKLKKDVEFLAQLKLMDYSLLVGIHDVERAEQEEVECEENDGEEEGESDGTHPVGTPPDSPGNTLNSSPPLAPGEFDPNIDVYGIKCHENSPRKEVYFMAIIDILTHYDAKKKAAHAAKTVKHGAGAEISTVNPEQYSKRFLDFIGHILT
Protocol: Dilution series of the compounds were prepared in DMSO at 100 times the final assay concentration (n1=n0/3 in 10 points). The compounds were further diluted to three times the assay concentration in assay buffer (20 mM MOPS pH 7.2, 25 mM magnesium chloride, 0.005% Tween 20). 6 μL of the diluted compounds were added to a 384 well assay plate followed by 9 μL of a mix consisting of 4 nM PIP4K2A (full length protein, SignalChem) and 100 μM PI(5)P diC8 (Tebu-Bio). Enzyme and compounds were pre-incubated at room temperature for 15 minutes.
Then 3 μL of a solution containing 60 μM ATP (Promega) in assay buffer was added to the wells containing compound and enzyme and mixing was performed by pipetting several times. The reaction was incubated at room temperature for 1 h. Then 18 μL of ADP-Glo™ Reagent (Promega) was added to stop the kinase reaction and deplete the unconsumed ATP, mixing was performed by pipetting several times. The plate was incubated at room temperature for 40 minutes before addition of 36 μL of Kinase Detection Reagent (Promega) to convert ADP to ATP and introduce luciferase and luciferin to detect ATP. The reaction was incubated at room temperature for 40 minutes before the luminescence was measured in a in a Victor 3V 1420 multilabel counter (Perkin Elmer).
Percent inhibition of the compounds as compared to dimethyl sulfoxide treated control samples was calculated. Compound concentration versus percent inhibition were fitted to generate IC50 values. […]

[2] = target: T2, PIP4K2B (Homo sapiens, UniProt P78356); assay: Trans-FI P kinase assay PIP4K2B (Table 4); format: biochemical; details: compounds listed under IC50 bins; read-out: Trans-FI P kinase assays: PIP4K2B IC50
T2 construct: made in house; host or cells: E. coli
T2 sequence (P78356 1-416): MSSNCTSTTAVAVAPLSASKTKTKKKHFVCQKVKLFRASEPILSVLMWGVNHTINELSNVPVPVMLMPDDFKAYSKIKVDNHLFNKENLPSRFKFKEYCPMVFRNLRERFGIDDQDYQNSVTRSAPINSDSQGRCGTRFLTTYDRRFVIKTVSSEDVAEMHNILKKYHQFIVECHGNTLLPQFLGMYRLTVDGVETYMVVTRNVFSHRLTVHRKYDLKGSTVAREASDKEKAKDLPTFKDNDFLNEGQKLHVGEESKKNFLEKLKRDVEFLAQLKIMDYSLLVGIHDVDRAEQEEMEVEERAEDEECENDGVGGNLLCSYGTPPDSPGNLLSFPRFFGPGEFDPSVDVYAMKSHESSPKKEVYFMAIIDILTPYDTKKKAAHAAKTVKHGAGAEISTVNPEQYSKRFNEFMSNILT
Method in brief: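 Transcreener FI detection (Ex 584/Em 623) of GDP, converted via calibration curve, gives IC50 from residual activity versus log concentration (highest 4.8 μM). Reaction: 80 μM PI5P plus DOPE carrier, 100 μM GTP, 5 nM GST-tagged enzyme, pH 7.3 HEPES with MgCl2 and 5% DMSO, 2 h after 1 h enzyme-compound preincubation at 27° C.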

Compound | IC50 [1] [nM] | IC50 [2] [nM]
C[C@@]1(O)C[C@H]2COc3ncc(Nc4ccc(-c5ccc(N6CCCC6=O)c(F)c5)cn4)cc3N2C1=O [Example 270, (6aS,8R)-2-((5-(3-fluoro-4-(2-oxopyrrolidin-1-yl)phenyl)pyridin-2-yl)amino)-8-hydroxy-8-methyl-6,6a,7,8-tetrahydro-9H-pyrido[2,3-b]pyrrolo[1,2-d][1,4]oxazin-9-one] | 10 to 100 | 10 to 100
C[C@@]1(O)C[C@H]2COc3ncc(Nc4ccc(-c5ccc(N6CCCC6=O)cc5)cn4)cc3N2C1=O [Example 271, (6aS,8R)-8-hydroxy-8-methyl-2-((5-(4-(2-oxopyrrolidin-1-yl)phenyl)pyridin-2-yl)amino)-6,6a,7,8-tetrahydro-9H-pyrido[2,3-b]pyrrolo[1,2-d][1,4]oxazin-9-one] | 10 to 100 | 10 to 100
CN(C)C/C=C/C(=O)Nc1cccc(CCC(=O)Nc2cncc(Nc3ccc(-c4ccc(N5CCCC5=O)cc4)cn3)c2)c1 [Example 169, (E)-4-(dimethylamino)-N-(3-(3-oxo-3-((5-((5-(4-(2-oxopyrrolidin-1-yl)phenyl)pyridin-2-yl)amino)pyridin-3-yl)amino)propyl)phenyl)but-2-enamide] | 10 to 100 | 10 to 100
O=C1NCCN1c1cncc(Nc2ccc(-c3ccc(N4CCCC4=O)c(F)c3)cn2)c1 [Example 272, 1-(5-((5-(3-fluoro-4-(2-oxopyrrolidin-1-yl)phenyl)pyridin-2-yl)amino)pyridin-3-yl)imidazolidin-2-one] | 100 to 1000 | 10 to 100
Cc1nc(Nc2cnc3c(c2)N2C(=O)CC[C@H]2CO3)ncc1-c1ccc(N2CCCC2=O)cc1 [Example 196, (S)-2-((4-methyl-5-(4-(2-oxopyrrolidin-1-yl)phenyl)pyrimidin-2-yl)amino)-6,6a,7,8-tetrahydro-9H-pyrido[2,3-b]pyrrolo[1,2-d][1,4]oxazin-9-one] | 10 to 100 | 1 to 10
CC1CN(C(=O)Nc2cncc(Nc3ccc(-c4ccc(N5CCCC5=O)cc4)cn3)c2)CCO1 (centres unmarked) [Example 250, 2-methyl-N-(5-((5-(4-(2-oxopyrrolidin-1-yl)phenyl)pyridin-2-yl)amino)pyridin-3-yl)morpholine-4-carboxamide] | 100 to 1000 | 10 to 100
O=C([C@@H]1CCOC1)N1CCN(c2cncc(Nc3ccc(-c4ccc(N5CCCC5=O)cc4)cn3)c2)CC1 [Example 244, (R)-1-(4-(6-((5-(4-(tetrahydrofuran-3-carbonyl)piperazin-1-yl)pyridin-3-yl)amino)pyridin-3-yl)phenyl)pyrrolidin-2-one] | 100 to 1000 | 10 to 100
CN1CCC(c2ccc(-c3ccc(Nc4cnc5c(c4)N4C(=O)CC[C@@H]4CO5)nc3)cc2)C1=O (stereo partly drawn) [Example 269, (6aR)-2-((5-(4-(1-methyl-2-oxopyrrolidin-3-yl)phenyl)pyridin-2-yl)amino)-6,6a,7,8-tetrahydro-9H-pyrido[2,3-b]pyrrolo[1,2d][1,4]oxazin-9-one] | > 1000 | > 1000
COc1cc(C(=O)Nc2cncc(Nc3ccc(-c4ccc(N5CCCC5=O)cc4)cn3)c2)c2[nH]cnc2c1 [Example 253, 5-methoxy-N-(5-((5-(4-(2-oxopyrrolidin-1-yl)phenyl)pyridin-2-yl)amino)pyridin-3-yl)-1H-benzo[d]imidazole-7-carboxamide] | 10 to 100 | 10 to 100
O=C1CCCN1c1ccc(-c2ccc(Nc3cnc4c(c3)N3C(=O)CC[C@@H]3CO4)nc2)cc1F [Example 173, (R)-2-((5-(3-fluoro-4-(2-oxopyrrolidin-1-yl)phenyl)pyridin-2-yl)amino)-6,6a,7,8-tetrahydro-9H-pyrido[2,3-b]pyrrolo[1,2-d][1,4]oxazin-9-one] | 10 to 100 | 10 to 100
CCOc1ccc(C(=O)Nc2cncc(Nc3ccc(-c4ccc(N5CCCC5=O)cc4)cn3)c2)cn1 [Example 249, 6-ethoxy-N-(5-((5-(4-(2-oxopyrrolidin-1-yl)phenyl)pyridin-2-yl)amino)pyridin-3-yl)nicotinamide] | 1 to 10 | 10 to 100

Second part, the compound after the results:

IC50 [1] [nM] | IC50 [2] [nM] | Compound
≤ 1 | 1 to 10 | COc1nc(Nc2cnc3c(c2)N2C(=O)CC[C@H]2CO3)ncc1-c1ccc(N2CCCC2=O)cc1 [Example 195, (S)-2-((4-methoxy-5-(4-(2-oxopyrrolidin-1-yl)phenyl)pyrimidin-2-yl)amino)-6,6a,7,8-tetrahydro-9H-pyrido[2,3-b]pyrrolo[1,2-d][1,4]oxazin-9-one]
1 to 10 | 10 to 100 | CC1(C)C[C@H]2COc3ncc(Nc4ccc(-c5ccc(N6CCCC6=O)cc5)cn4)cc3N2C1=O [Example 255, (S)-8,8-dimethyl-2-((5-(4-(2-oxopyrrolidin-1-yl)phenyl)pyridin-2-yl)amino)-6,6a,7,8-tetrahydro-9H-pyrido[2,3-b]pyrrolo[1,2-d][1,4]oxazin-9-one]
1 to 10 | 1 to 10 | COCc1cc(Nc2cnc3c(c2)N2C(=O)C4(CC4)C[C@H]2CO3)ncc1-c1ccc(N2CCCC2=O)cc1 [Example 207, (S)-2′-((4-(methoxymethyl)-5-(4-(2-oxopyrrolidin-1-yl)phenyl)pyridin-2-yl)amino)-6a′,7′-dihydro-6′H,9′H-spiro[cyclopropane-1,8′-pyrido[2,3-b]pyrrolo[1,2-d][1,4]oxazin]-9′-one]
1 to 10 | 10 to 100 | CC(C)c1cc(Nc2cnc3c(c2)N2C(=O)CC[C@H]2CO3)ncc1-c1ccc(N2CCCC2=O)c(F)c1 [Example 181, (S)-2-((5-(3-fluoro-4-(2-oxopyrrolidin-1-yl)phenyl)-4-isopropylpyridin-2-yl)amino)-6,6a,7,8-tetrahydro-9H-pyrido[2,3-b]pyrrolo[1,2-d][1,4]oxazin-9-one]
1 to 10 | 10 to 100 | Cc1cc(Nc2cnc3c(c2)N2C(=O)CC[C@H]2CO3)ncc1-c1ccc(N2CCCC2=O)cc1 [Example 176, (S)-2-((4-methyl-5-(4-(2-oxopyrrolidin-1-yl)phenyl)pyridin-2-yl)amino)-6,6a,7,8-tetrahydro-9H-pyrido[2,3-b]pyrrolo[1,2-d][1,4]oxazin-9-one]
≤ 1 | 1 to 10 | COc1cc(Nc2cnc3c(c2)N2C(=O)C4(CC4)C[C@H]2CO3)ncc1-c1ccc(N2CCCC2=O)cc1 [Example 212, (S)-2′-((4-methoxy-5-(4-(2-oxopyrrolidin-1-yl)phenyl)pyridin-2-yl)amino)-6a′,7′-dihydro-6′H,9′H-spiro[cyclopropane-1,8′-pyrido[2,3-b]pyrrolo[1,2-d][1,4]oxazin]-9′-one]
1 to 10 | 10 to 100 | O=C1CCCN1c1ccc(-c2cnc(Nc3cnc4c(c3)N3C(=O)CC[C@H]3CO4)cc2C2CC2)cc1F [Example 182, (S)-2-((4-cyclopropyl-5-(3-fluoro-4-(2-oxopyrrolidin-1-yl)phenyl)pyridin-2-yl)amino)-6,6a,7,8-tetrahydro-9H-pyrido[2,3-b]pyrrolo[1,2-d][1,4]oxazin-9-one]
1 to 10 | 1 to 10 | Cc1cc(N2CCCC2=O)ccc1-c1cnc(Nc2cnc3c(c2)N2C(=O)C4(CC4)C[C@H]2CO3)nc1 [Example 203, (S)-2′-((5-(2-methyl-4-(2-oxopyrrolidin-1-yl)phenyl)pyrimidin-2-yl)amino)-6a′,7′-dihydro-6′H,9′H-spiro[cyclopropane-1,8′-pyrido[2,3-b]pyrrolo[1,2-d][1,4]oxazin]-9′-one]
